Key:
Assay in all cases: Postemergence foliar-applied herbicidal mixtures, weeds common to row crops
Type in all cases: in vivo
[1] = system: AVEFA Avena fatua L. (wild oat)
From the text: (§1) Evaluation of Postemergence Foliar-Applied Herbicidal Mixtures for Control of Weeds Common to Row Crops such as Corn and Soybeans. Seeds or nutlets of the desired test plant species were planted in a soil matrix prepared by mixing a loam or sandy loam soil (e.g., 28.6 percent silt, 18.8 percent clay, and 52.6 percent sand, with a pH of about 5.8 and an organic matter content of about 1.8 percent) and calcareous grit in an 80 to 20 ratio. The soil matrix was contained in plastic pots with a surface area of 84.6 cm^2 and a volume of 560 cubic centimeters (cm^3). When required to ensure good germination and healthy plants, a fungicide treatment and/or other chemical or physical treatment was applied. The plants were grown for 7-31 d in a greenhouse with an approximate 15 h photoperiod which was maintained at about 23-29° C. during the day and 22-28° C. during the night. Nutrients (Peters Excel® 15-5-15 5-Ca 2-Mg) and water were added on a regular basis and supplemental lighting was provided with overhead metal halide 1000-Watt lamps as necessary. The plants were employed for testing when they reached the first, second, or third true leaf stage.
(§2) Treatment requirements were calculated based upon the rates being tested, the concentration of active ingredient or acid equivalent in the formulation, and a 12 mL application volume at a rate of 187 L/ha.
(§3) Treatments consisted of the potassium (K^+) salt of 4-amino-3-chloro-6-(4-chloro-2-fluoro-3-methoxyphenyl)-pyridine-2-carboxylic acid (Cmpd 4) formulated as a soluble liquid (SL), the propargyl ester of 4-amino-3-chloro-6-(4-chloro-2-fluoro-3-methoxyphenyl)-pyridine-2-carboxylic acid (Cmpd 2) as technical grade material, or the benzyl ester of 4-amino-3-chloro-6-(4-chloro-2-fluoro-3-methoxyphenyl)-pyridine-2-carboxylic acid (Cmpd 3) as technical grade material and quizalofop-p-ethyl (Assure® II) alone and in combination. Forms of compound of formula (I) and quizalofop-P-ethyl were applied on an acid equivalent basis.
(§4) For treatments comprised of formulated compounds, measured amounts of compounds were placed individually in 25 mL glass vials and diluted in a volume of 1.5% (v/v) Agri-Dex® crop oil concentrated to obtain 6× stock solutions. […] Application solutions were prepared by adding an appropriate amount of each stock solution (typically 2 mL) and diluted to the appropriate final concentrations with the addition of an appropriate amount of an aqueous mixture of 1.5% (v/v) crop oil concentrate and water so that the final spray solutions contained 1.25+/−0.05% (v/v) crop oil concentrate.
(§5) For treatments comprised of formulated and technical compounds, weighed amounts of the technical materials were placed individually in 25 mL glass vials and dissolved in a volume of 97:3 v/v acetone/DMSO to obtain 6× stock solutions, and measured amounts of the formulated compounds were placed individually in 25 mL glass vials and diluted in a volume of 1.5% (v/v) crop oil concentrate or water to obtain 6× stock solutions. […] Application solutions were prepared by adding an appropriate amount of each stock solution (e.g., 2 mL) and diluted to the appropriate final concentrations with the addition of an appropriate amount of an aqueous mixture of 1.5% (v/v) crop oil concentrate and water so that the final spray solutions contained 1.25% (v/v) crop oil concentrate. When required, additional water and/or 97:3 v/v acetone/DMSO can be added to individual application solutions so that the final acetone and DMSO concentrations of the application solutions being compared are 16.2% and 0.5%, respectively.
(§6) All stock solutions and applications solutions were visually inspected for compound compatibility prior to application. Compound requirements are based upon a 12 mL application volume at a rate of 187 liters per hectare (L/ha). […]

[2] = system: LOLMU Lolium multiflorum Lam. (Italian ryegrass); details: Quizalofop-P-ethyl 3.56 g ae/ha
From the text: as §1, §2, §3, §4, §5, §6

[3] = system: DIGSA Digitaria sanguinalis (L.) Scop. (large crabgrass); details: Quizalofop-P-ethyl 3.56 g ae/ha
From the text: as §1, §2, §3, §4, §5, §6

[4] = system: OEOBI Oenothera biennis (evening primrose)
From the text: as §1, §2, §3, §4, §5, §6

[5] = system: SORHA Sorghum halepense (L.) Pers. (Johnsongrass); details: Quizalofop-P-ethyl 7.125 g ae/ha
From the text: as §1, §2, §3, §4, §5, §6

[6] = Quizalofop-P-ethyl 7.125 g ae/ha
[7] = Quizalofop-P-ethyl 14.25 g ae/ha

CCOC(=O)[C@@H](C)Oc1ccc(Oc2cnc3cc(Cl)ccc3n2)cc1 [Quizalofop-P-ethyl, quizalofop-P-ethyl]
Percent (%) injury rated visually 14 DAA Obs ([1]; Quizalofop-P-ethyl 3.56 g ae/ha): 15% | Percent (%) injury rated visually 14 DAA Obs [1, 6]: 15% | Percent (%) injury rated visually 14 DAA Obs [1, 7]: 40% | Percent (%) injury rated visually 14 DAA Obs [2]: 0% | Percent (%) injury rated visually 14 DAA Obs [3]: 20% | Percent (%) injury rated visually 14 DAA Obs [4, 6]: 0% | Percent (%) injury rated visually 14 DAA Obs [4, 7]: 0% | Percent (%) injury rated visually 14 DAA Obs ([4]; Quizalofop-P-ethyl 28.5 g ae/ha): 0% | Percent (%) injury rated visually 14 DAA Obs [5]: 50%

Source: patent US20140213446A1, “HERBICIDAL COMPOSITIONS AND METHODS USING COMBINATIONS OF 4-AMINO-3-CHLORO-6-(4-CHLORO-2-FLUORO-3-METHOXYPHENYL)PYRIDINE-2-CARBOXYLIC ACID OR A DERIVATIVE THEREOF AND AN ARYLOXYPHENOXY PROPIONATE ACCASE INHIBITOR HERBICIDE” (DOW AGROSCIENCES LLC, priority 2013, published 2014)
